Tested on: Cystic fibrosis transmembrane conductance regulator (Homo sapiens), P13569 [F508del]
Test: Corrector activity at 3xHA-tagged full-length human CFTR F508del mutant expressed in human CFBE41o- cells assessed as restoration of plasma membrane density of channel at 10 uM incubated for 24 hrs in presence of VX-809/N-(5-(4-fluorobenzyl)thiazol-2-yl)-2,5-dimethylfuran-3-carboxamide by ELISA relative to wild-type CFTR level
Assay type: cell membranes
Conditions: filed as activator

Sequence of Cystic fibrosis transmembrane conductance regulator (Homo sapiens), P13569 [F508del] (P13569 as listed by the source): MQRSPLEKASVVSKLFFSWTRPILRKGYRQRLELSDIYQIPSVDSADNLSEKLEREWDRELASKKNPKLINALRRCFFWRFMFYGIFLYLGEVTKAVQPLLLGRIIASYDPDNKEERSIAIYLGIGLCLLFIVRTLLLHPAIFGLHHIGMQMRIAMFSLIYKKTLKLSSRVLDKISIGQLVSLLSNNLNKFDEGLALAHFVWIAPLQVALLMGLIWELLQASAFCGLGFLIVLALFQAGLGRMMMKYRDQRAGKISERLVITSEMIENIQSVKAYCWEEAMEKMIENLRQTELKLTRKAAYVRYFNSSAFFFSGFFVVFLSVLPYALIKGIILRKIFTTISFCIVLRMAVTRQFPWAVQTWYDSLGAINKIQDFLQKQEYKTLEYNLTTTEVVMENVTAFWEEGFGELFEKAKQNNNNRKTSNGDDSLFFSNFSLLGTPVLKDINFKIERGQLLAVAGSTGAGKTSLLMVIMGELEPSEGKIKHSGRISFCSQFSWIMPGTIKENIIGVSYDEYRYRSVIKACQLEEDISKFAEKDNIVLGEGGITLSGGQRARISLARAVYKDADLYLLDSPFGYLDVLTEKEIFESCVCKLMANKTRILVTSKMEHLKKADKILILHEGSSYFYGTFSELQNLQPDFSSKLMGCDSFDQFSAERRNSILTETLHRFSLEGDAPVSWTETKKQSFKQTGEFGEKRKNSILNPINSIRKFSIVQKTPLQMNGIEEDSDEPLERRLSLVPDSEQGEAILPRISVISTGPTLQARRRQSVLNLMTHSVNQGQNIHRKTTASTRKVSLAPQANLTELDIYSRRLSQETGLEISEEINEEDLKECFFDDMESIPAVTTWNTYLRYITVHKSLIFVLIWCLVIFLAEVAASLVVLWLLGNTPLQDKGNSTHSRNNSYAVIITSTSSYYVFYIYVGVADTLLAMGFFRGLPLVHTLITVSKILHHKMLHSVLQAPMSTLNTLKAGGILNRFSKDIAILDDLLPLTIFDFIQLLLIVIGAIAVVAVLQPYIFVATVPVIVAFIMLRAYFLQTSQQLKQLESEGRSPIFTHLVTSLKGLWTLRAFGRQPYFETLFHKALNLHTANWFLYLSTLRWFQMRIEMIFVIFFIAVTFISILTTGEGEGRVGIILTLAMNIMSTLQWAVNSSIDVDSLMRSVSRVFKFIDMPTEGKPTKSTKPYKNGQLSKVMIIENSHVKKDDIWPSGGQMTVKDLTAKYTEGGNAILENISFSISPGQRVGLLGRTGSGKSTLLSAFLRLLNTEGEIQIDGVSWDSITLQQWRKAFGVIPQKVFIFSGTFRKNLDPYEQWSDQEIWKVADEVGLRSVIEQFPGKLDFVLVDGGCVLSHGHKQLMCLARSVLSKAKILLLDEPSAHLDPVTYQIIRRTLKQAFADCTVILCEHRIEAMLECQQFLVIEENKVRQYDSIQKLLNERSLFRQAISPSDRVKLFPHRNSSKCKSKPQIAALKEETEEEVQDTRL

Row | Activity | SMILES
1 | 102% | Cc1nc(-n2nc(-c3ccccc3)cc2NC(=O)C2(c3ccc(Cl)cc3)CCCC2)[nH]c(=O)c1C
2 | 67% | Cc1cc(=O)[nH]c(-n2nc(-c3ccccc3)cc2NC(=O)C2(c3ccc(Cl)cc3)CCCC2)n1

— ChEMBL document CHEMBL5576150, “Synthesis and Biological Evaluation of Pyrazole-Pyrimidones as a New Class of Correctors of the Cystic Fibrosis Transmembrane Conductance Regulator (CFTR)” (J Med Chem, 2024)
